ChEMBL document CHEMBL3046609, “Herbicidal properties of the thaxtomin group of phytotoxins” (2001)
Active and inactive are the calls of the source. No cut-off for these calls is given here.

What was measured:
Abutilon theophrasti [1] = assay: Herbicidal activity against Abutilon theophrasti (velvetleaf) assessed as visual injury at 100 ug/seedling applied to leaf after 1 week relative to control; format: functional
Arabidopsis thaliana [2] = assay: Growth inhibition of Arabidopsis thaliana var. Columbia assessed as stunting after 9 days by agarose-based test; format: functional, organism-based
Abutilon theophrasti [3] = assay: Herbicidal activity against Abutilon theophrasti (velvetleaf) assessed as visual injury at 1 ug/seedling applied to meristem after 1 week relative to control; format: functional
Helianthus annuus [4] = assay: Herbicidal activity against Helianthus annuus (sunflower) assessed as visual injury at 100 ug/seedling applied to meristem after 1 week relative to control; format: functional
Arabidopsis thaliana [5] = assay: Growth inhibition of Arabidopsis thaliana var. Columbia after 9 days by agarose-based test; format: functional
Helianthus annuus [6] = assay: Herbicidal activity against Helianthus annuus (sunflower) assessed as visual injury at 10 ug/seedling applied to meristem after 1 week relative to control; format: functional
Helianthus annuus [7] = assay: Herbicidal activity against Helianthus annuus (sunflower) assessed as visual injury at 1 ug/seedling applied to cotyledon after 1 week relative to control; format: functional
Helianthus annuus [8] = assay: Herbicidal activity against Helianthus annuus (sunflower) assessed as visual injury at 10 ug/seedling applied to cotyledon after 1 week relative to control; format: functional
Abutilon theophrasti [9] = assay: Herbicidal activity against Abutilon theophrasti (velvetleaf) assessed as visual injury at 1 ug/seedling applied to leaf after 1 week relative to control; format: functional
[10] = system: Agrostis stolonifera var. palustris; assay: Herbicidal activity against Agrostis stolonifera var. palustris assessed as stunting after 9 days by agarose-based test; format: functional, organism-based
[11] = system: Agrostis stolonifera var. palustris; assay: Herbicidal activity against Agrostis stolonifera var. palustris after 9 days by agarose-based test; format: functional
Arabidopsis thaliana [12] = assay: Growth inhibition of Arabidopsis thaliana var. Columbia assessed as root tip puffing after 9 days by agarose-based test; format: functional, organism-based
Helianthus annuus [13] = assay: Herbicidal activity against Helianthus annuus (sunflower) assessed as visual injury at 1 ug/seedling applied to meristem after 1 week relative to control; format: functional
Helianthus annuus [14] = assay: Herbicidal activity against Helianthus annuus (sunflower) assessed as visual injury at 100 ug/seedling applied to cotyledon after 1 week relative to control; format: functional
[15] = system: Agrostis stolonifera var. palustris; assay: Herbicidal activity against Agrostis stolonifera var. palustris assessed as root tip puffing after 9 days by agarose-based test; format: functional, organism-based
Abutilon theophrasti [16] = assay: Herbicidal activity against Abutilon theophrasti (velvetleaf) assessed as visual injury at 10 ug/seedling applied to leaf after 1 week relative to control; format: functional
Abutilon theophrasti [17] = assay: Herbicidal activity against Abutilon theophrasti (velvetleaf) assessed as visual injury at 10 ug/seedling applied to meristem after 1 week relative to control; format: functional
Abutilon theophrasti [18] = assay: Herbicidal activity against Abutilon theophrasti (velvetleaf) assessed as visual injury at 100 ug/seedling applied to meristem after 1 week relative to control; format: functional
Ipomoea hederacea [19] = assay: Post-emergence herbicidal activity against Ipomoea hederacea (ivy-leaved morning glory) assessed as visual injury at 2 kg/ha after 9 days relative to control; format: functional
Avena fatua [20] = assay: Post-emergence growth inhibition of Avena fatua assessed as visual injury at 0.5 kg/ha after 9 days relative to control; format: functional; parameters: scale not given: the % may be the effect or the level left
Helianthus annuus [21] = assay: Post-emergence growth inhibition of Helianthus annuus (sunflower) assessed as visual injury at 0.25 kg/ha after 9 days relative to control; format: functional; parameters: scale not given: the % may be the effect or the level left
Ipomoea hederacea [22] = assay: Post-emergence herbicidal activity against Ipomoea hederacea (ivy-leaved morning glory) assessed as visual injury at 0.25 kg/ha after 9 days relative to control; format: functional
Avena fatua [23] = assay: Post-emergence growth inhibition of Avena fatua assessed as visual injury at 2 kg/ha after 9 days relative to control; format: functional; parameters: scale not given: the % may be the effect or the level left
Helianthus annuus [24] = assay: Post-emergence growth inhibition of Helianthus annuus (sunflower) assessed as visual injury at 0.5 kg/ha after 9 days relative to control; format: functional; parameters: scale not given: the % may be the effect or the level left
Helianthus annuus [25] = assay: Post-emergence growth inhibition of Helianthus annuus (sunflower) assessed as visual injury at 1 kg/ha after 9 days relative to control; format: functional; parameters: scale not given: the % may be the effect or the level left
Echinochloa crus-galli [26] = assay: Post-emergence herbicidal activity against Echinochloa crus-galli (barnyard grass) assessed as visual injury at 1 kg/ha after 9 days relative to control; format: functional
Echinochloa crus-galli [27] = assay: Post-emergence herbicidal activity against Echinochloa crus-galli (barnyard grass) assessed as visual injury at 2 kg/ha after 9 days relative to control; format: functional
Avena fatua [28] = assay: Post-emergence growth inhibition of Avena fatua assessed as visual injury at 1 kg/ha after 9 days relative to control; format: functional; parameters: scale not given: the % may be the effect or the level left
Echinochloa crus-galli [29] = assay: Post-emergence herbicidal activity against Echinochloa crus-galli (barnyard grass) assessed as visual injury at 0.5 kg/ha after 9 days relative to control; format: functional
Ipomoea hederacea [30] = assay: Post-emergence herbicidal activity against Ipomoea hederacea (ivy-leaved morning glory) assessed as visual injury at 1 kg/ha after 9 days relative to control; format: functional
Ipomoea hederacea [31] = assay: Post-emergence herbicidal activity against Ipomoea hederacea (ivy-leaved morning glory) assessed as visual injury at 0.5 kg/ha after 9 days relative to control; format: functional
Echinochloa crus-galli [32] = assay: Post-emergence herbicidal activity against Echinochloa crus-galli (barnyard grass) assessed as visual injury at 0.25 kg/ha after 9 days relative to control; format: functional
Avena fatua [33] = assay: Post-emergence growth inhibition of Avena fatua assessed as visual injury at 0.25 kg/ha after 9 days relative to control; format: functional; parameters: scale not given: the % may be the effect or the level left
Helianthus annuus [34] = assay: Post-emergence growth inhibition of Helianthus annuus (sunflower) assessed as visual injury at 2 kg/ha after 9 days relative to control; format: functional; parameters: scale not given: the % may be the effect or the level left
Ipomoea hederacea [35] = assay: Post-emergence herbicidal activity against Ipomoea hederacea (ivy-leaved morning glory) after 9 days; format: functional
Avena fatua [36] = assay: Post-emergence growth inhibition of Avena fatua assessed as visual injury at 0.125 kg/ha after 9 days relative to control; format: functional; parameters: scale not given: the % may be the effect or the level left
Ipomoea hederacea [37] = assay: Post-emergence herbicidal activity against Ipomoea hederacea (ivy-leaved morning glory) assessed as visual injury at 0.125 kg/ha after 9 days relative to control; format: functional
Helianthus annuus [38] = assay: Post-emergence growth inhibition of Helianthus annuus (sunflower) assessed as visual injury at 0.125 kg/ha after 9 days relative to control; format: functional; parameters: scale not given: the % may be the effect or the level left
Echinochloa crus-galli [39] = assay: Post-emergence herbicidal activity against Echinochloa crus-galli (barnyard grass) assessed as visual injury at 0.125 kg/ha after 9 days relative to control; format: functional

SMILES	Activity (Abutilon theophrasti [1]) [%]	growth inhibition (GI) (Arabidopsis thaliana [2])	Activity (Abutilon theophrasti [3]) [%]	Activity (Helianthus annuus [4]) [%]	I50 (Arabidopsis thaliana [5]) [ppb]	Activity (Helianthus annuus [6]) [%]	Activity (Helianthus annuus [7]) [%]	Activity (Helianthus annuus [8]) [%]	Activity (Abutilon theophrasti [9]) [%]	Activity [10]	I50 [11] [ppb]	growth inhibition (GI) (Arabidopsis thaliana [12])	Activity (Helianthus annuus [13]) [%]	Activity (Helianthus annuus [14]) [%]	Activity [15]	Activity (Abutilon theophrasti [16]) [%]	Activity (Abutilon theophrasti [17]) [%]	Activity (Abutilon theophrasti [18]) [%]	other results
O=C1N[C@@H](Cc2c[nH]c3cccc([N+](=O)[O-])c23)C(=O)N[C@H]1Cc1ccccc1 [DES-N-METHYLTHAXTOMIN C]	0	Active	0	50	400	0	0	0	0	Active	600	Active	0	0	Active	0	0	10	
CN1C(=O)[C@](O)(Cc2ccc(O)c(O)c2)N(C)C(=O)[C@@H]1Cc1c[nH]c2cccc([N+](=O)[O-])c12 [HYDROXYTHAXTOMIN A]		Active			10					Active	40	Active			Active				
CN1C(=O)[C@](O)(Cc2ccccc2)NC(=O)[C@@H]1Cc1c[nH]c2cccc([N+](=O)[O-])c12 [HYDROXYTHAXTOMIN C]	0	Active	0	100	<40	95	0	0	0	Active	<40	Active	80	20	Active	0	20	70	
CN1C(=O)[C@](O)(Cc2ccccc2O)N(C)C(=O)[C@@H]1Cc1c[nH]c2cccc([N+](=O)[O-])c12 [THAXTOMIN A O-ISOMER]		Active			100					Active	90	Active			Active				Activity (Ipomoea hederacea [19]): 40%; Activity (Avena fatua [20]): 0%; Activity (Helianthus annuus [21]): 0%; Activity (Ipomoea hederacea [22]): 0%; Activity (Avena fatua [23]): 0%; Activity (Helianthus annuus [24]): 10%; Activity (Helianthus annuus [25]): 75%; Activity (Echinochloa crus-galli [26]): 0%; Activity (Echinochloa crus-galli [27]): 20%; Activity (Avena fatua [28]): 0%; Activity (Echinochloa crus-galli [29]): 0%; Activity (Ipomoea hederacea [30]): 40%; Activity (Ipomoea hederacea [31]): 10%; Activity (Echinochloa crus-galli [32]): 0%; Activity (Avena fatua [33]): 0%; Activity (Helianthus annuus [34]): 75%
CN1C(=O)[C@](O)(Cc2ccc(O)cc2)N(C)C(=O)[C@@H]1Cc1c[nH]c2cccc([N+](=O)[O-])c12 [THAXTOMIN A P-ISOMER]		Active			190					Active	100	Active			Active				
CN1C(=O)[C@](O)(Cc2ccccc2)N(C)C(=O)[C@@H]1Cc1c[nH]c2cccc([N+](=O)[O-])c12 [THAXTOMIN B]		Active			28					Active		Active			Active				
CN1C(=O)[C@H](Cc2ccccc2)NC(=O)[C@@H]1Cc1c[nH]c2cccc([N+](=O)[O-])c12 [THAXTOMIN C]	0	Active	0	75	50	30	0	0	0	Active	40	Active	0	0	Active	0	0	50	GR50 (Ipomoea hederacea [35]): <125 g/ha; Activity (Avena fatua [20]): 0%; Activity (Avena fatua [36]): 0%; Activity (Helianthus annuus [21]): 30%; Activity (Ipomoea hederacea [22]): 80%; Activity (Helianthus annuus [24]): 30%; Activity (Helianthus annuus [25]): 70%; Activity (Echinochloa crus-galli [26]): 40%; Activity (Ipomoea hederacea [37]): 70%; Activity (Avena fatua [28]): 0%; Activity (Echinochloa crus-galli [29]): 20%; Activity (Ipomoea hederacea [30]): 80%; Activity (Helianthus annuus [38]): 30%; Activity (Echinochloa crus-galli [39]): 0%; Activity (Ipomoea hederacea [31]): 80%; Activity (Echinochloa crus-galli [32]): 0%; Activity (Avena fatua [33]): 0%
